According to patent US7655626B2, “Antiangiogenic peptides” (Universite de Liege, priority 2004, dated 2010):

Assays:
[1] = Lipid phase (liposome) fusion, R18 fluorescence; details: for Relative liposome fusion, pH 8 UC / Relative liposome fusion, pH 4 UC / Relative liposome fusion, pH 6 UC: uncharged liposomes; for Relative liposome fusion, pH 4 C / Relative liposome fusion, pH 6 C / Relative liposome fusion, pH 8 C: charged liposomes
Procedure: Lipid phase fusion was measured by following the fluorescence of a liposoluble marker, R18. When incorporated into liposomes at a high surface density, R18 fluorescence is attenuated. Upon dilution of the marker through membrane fusion of labeled and unlabeled liposomes, the attenuation is relieved and R18 fluorescence increases. Labeled liposomes were prepared by blending R18 into the lipid film (see table 1). Labeled and unlabeled liposomes were mixed in a 1:4 ratio (w/w) and diluted to a concentration of 50 μM. Fluorescence is measured at room temperature (excitation λ: 560 nm, emission λ: 590 nm) on a Perkin Elmer LS-50B fluorimeter. The ability of PO-PRL to induce liposome fusion was analyzed in two different liposome preparations at different pH (table 1).
The following buffers were used: pH 8 buffer (10 mM Tris-HCl, pH=8; 150 mM NaCl; 0.01% EDTA; 1 mM NaN3), pH 6 buffer (10 mM Sodium-Acetate, pH=6; 150 mM NaCl; 0.01% EDTA; 1 mM NaN3), pH 4 buffer (10 mM Sodium Acetate, pH=4; 57 mM Acetic Acid)
The following concentrations of the peptide were used: • 600 μM corresponding to a molar peptide/lipid ratio (R) of 0.2 • 300 μM corresponding to a peptide/lipid ratio (R) of 0.1 • 150 μM corresponding to a peptide/lipid ratio (R) of 0.05 • 60 μM corresponding to a peptide/lipid ratio (R) of 0.02 • 30 μM corresponding to a peptide/lipid ratio (R) of 0.01.

[2] = Secondary structure by ATR-FTIR; type: physicochemical; details: peptide dissolved in 100% DMSO
Procedure: The conformation of the peptide in solution is analyzed by Fourier transformed infrared spectroscopy (ATR-FTIR). The sample (20 μg) is spread on a Germanium plate and spectra are recorded between 1800 and 1000 cm−1. The deconvolution of the 1700-1600 cm−1 area, corresponding to the amide I band, allows the determination of the secondary structure of the peptide (Goormaghtigh, E., et al. Biochim Biophys Acta 1422:[…] (1999)). The secondary structure of the peptide is given Table 3. Tilted peptides are often in β structure in solution, while being helical in the presence of lipids (Martin, I., et al. Biochem Biophys Res Commun 175:872-9 (1991)).

BACE cells [3] = assay: Apoptosis by flow cytometry (propidium iodide, sub-G1 population); type: cell-based, Bovine; details: 10 nM; 18-h treatment; untreated cells 1%
Procedure: In order to determine the effect of MPB-PO-PRL on endothelial cell apoptosis, the inventors have analyzed the DNA content of MBP-PO-PRL treated cells by flow cytometry. For this purpose, DNA was labeled with propidium iodide. Bovine adrenal cortex endothelial (BACE) cells were plated in low-glucose Dulbbecco's modified Eagle's medium containing 10% fetal calf serum (FCS) and 100 U/ml penicillin/streptomycin per ml (10% FCS medium) at a density of cells 5×10^5/100 mm plate. 24 h after plating, cells were treated for 18 h with the proteins of interest. The cells were then harvested and fixed and permeabilized in ice-cold ethanol for 2 h before centrifugation and incubation (at 37° C. for 30 min) in PBS containing Rnase (5 μg/ml) and propidium iodide (50 μg/ml). The cells were analysed using a Coulter Epics XL flow cytometer.

BACE cells [4] = assay: In vitro capillary formation, collagen gel assay; type: cell-based, Bovine; details: 10 nM
Procedure: In order to further analyze the ability of the MBP-PO-PRL to prevent angiogenesis in vitro, its capacity to prevent capillary formation was analyzed in a collagen gel assay. This assay was performed as follows: 20000 cells were plated between two collagen gels (5 volumes rat tail collagen, 1 volume 10×M199 medium, 50 mM NaHCO3). Gels were overlaid with 10% FBS medium containing or not recombinant proteins of interest.

[5] = test system: B16-F10 murine melanoma cells; assay: Viability assay (calcein-AM), B16-F10; type: cell-based; details: 10 nM; 72 h
Procedure: (§1) In order to determine whether the effect of tilted peptides exerted on endothelial cells is cell specific, a viability assay was performed on BACE and ABAE endothelial cells and on two tumoral cells lines, the B16-F10 murine melanoma cells and the MDA-MB-231 human breast cancer cell. Viable cells are detected by the presence of intracellular esterase, determined by the enzymatic conversion of non fluorescent calcein AM (an ester derivative) into fluorescent calcein.
(§2) To determine whether the activity of the MBP-PO-PRL and MBP-PO-GH is specific for endothelial cells, their ability to affect viability of B16-F10 and MDA-MB-231 cell line was determined. 25000 MDA-MB-231 cells and B16-F10 cells were plated in 24-well plates, respectively in 0.5 ml 10% FCS/RPMI medium and in 10% FCS/DMEM 4500 medium. The cells were treated with recombinant proteins or campthotecin for 72 h. Cells were washed, incubated with calcein-AM and fluorescence determined as described above.

[6] = test system: MDA-MB-231 human breast cancer cell; assay: Viability assay (calcein-AM), MDA-MB-231; type: cell-based; details: 10 nM; 72 h
Procedure: as §1, §2

FLSLIVSILRSWNE [PO-PRL]
Relative liposome fusion, pH 8 UC ([1]; R 0.05 (150 μM), 15 min): 38% | Relative liposome fusion, pH 4 C ([1]; R 0.05, 15 min): 35% | Relative liposome fusion, pH 4 UC ([1]; R 0.05, 15 min): 100% | Relative liposome fusion, pH 6 C ([1]; R 0.05, 15 min): 35% | Relative liposome fusion, pH 6 UC ([1]; R 0.05, 15 min): 38% | Relative liposome fusion, pH 8 C ([1]; R 0.05, 15 min): 34% | Relative liposome fusion, pH 8 UC ([1]; R 0.1 (300 μM), 15 min): 64% | Relative liposome fusion, pH 4 C ([1]; R 0.1, 15 min): 34% | Relative liposome fusion, pH 4 UC ([1]; R 0.1, 15 min): 105% | Relative liposome fusion, pH 6 C ([1]; R 0.1, 15 min): 44% | Relative liposome fusion, pH 6 UC ([1]; R 0.1, 15 min): 55% | Relative liposome fusion, pH 8 C ([1]; R 0.1, 15 min): 41% | Relative liposome fusion, pH 4 C ([1]; R 0.2, 15 min): 47% | Relative liposome fusion, pH 4 UC ([1]; R 0.2, 15 min): 97% | Relative liposome fusion, pH 6 C ([1]; R 0.2, 15 min): 87% | Relative liposome fusion, pH 6 UC ([1]; R 0.2, 15 min): 68% | Relative liposome fusion, pH 8 C ([1]; R 0.2, 15 min): 64% | Relative liposome fusion, pH 8 UC ([1]; R (peptide/lipid) 0.2 (600 μM), after 15 min, reference set at 100%): 100% | Secondary structure: Alpha [2]: 16% | Secondary structure: Beta [2]: 63% | Secondary structure: Coil [2]: 9% | Secondary structure: Turn [2]: 12%

B1: 16K hPRL: 16 kDa N-terminal fragment of human prolactin, positive control (protein)
chain: LPICPGGAARCQVTLRDLFDRAVVLSHYIHNLSSEMFSEFDKRYTHGRGFITKAINSCHTSSLATPEDKEQAQQMNQKDFLSLIVSILRSWNEPLYHLVTEVRGMQEAPEAILSKAVEIEEQTKRLLEGMELIVSQVHP
percentage of sub-G1 cell population (BACE cells [3]): 55,9% | capillary formation in collagen gel (BACE cells [4]): prevents capillary formation | cell viability [5]: do not affect viability | cell viability [6]: do not affect viability
